Patent US20150313897A1, “METHODS FOR TREATING PARKINSON'S DISEASE” (Teva Pharmaceuticals International GmbH, priority 2009, published 2015)
Entries after “also recorded” stand apart in the source; their conditions may differ.

Columns and labels:
Type in all cases: in vivo, rhesus monkeys
[1] = Ropinirole plasma levels (PK) after NP201 implant or TID oral ropinirole; conditions: oral ropinirole group relative to NP201
Protocol: (§1) In the Experimentation Phase, the monkeys were assigned to one of three treatment groups: Group 1—oral ropinirole TID using the mean lowest effective dose determined in the Dose Finding Phase. Group 2—NP201 releasing ropinirole at a dose of either approximately 1/9th or 1/18th of the total daily oral TID dose), e.g., for a single 1.00 mg/kg oral dose, the daily dose would be 3.00 mg/kg/day and the implant doses would then be 0.33 mg/kg/day or 0.17 mg/kg/day, respectively. Group 3—Control group will receive both a subcutaneous placebo implant and an oral placebo TID.
In order to collect Pharmacokinetic (“PK”) samples, monkeys were tranquilized with ketamine (7-10 mg/kg intramuscularly) in order to collect 1 cc of blood from the saphenous vein. Plasma samples were collected into appropriately labeled collection tubes. One cc blood samples were collected by catheter or venipuncture into EDTA collection tubes for ropinirole plasma concentrations by a validated HPLC with MS/MS detection. The plasma samples were frozen within two hours after collection and remained frozen until analyzed. PK Samples for the Dose Finding Phase (Oral dose) were drawn on days 1 and 14 at 60, 120, 180, 240 and 360 minutes after one oral dose of 1.0 mg/kg. PK Samples for the Experimentation Phase (NP201 implants) were drawn in all […] test groups in order to test the blood levels of ropinirole. […]

MPTP treated monkeys [2] = assay: Clinical Rating Scale (CRS) in primate model of Parkinson's Disease; conditions: NP201 at 1/9th of the oral dose; p<0.05
Protocol: In the MPTP Induction Phase, the monkeys were made bilaterally Parkinsonian with the use of MPTP. Monkeys received an initial dose of 0.3 mg/kg MPTP through a unilateral intracarotid injection and twice weekly injections of 0.3 mg/kg intravenous (i.v.) MPTP until they achieve a score of between 7.0 and 20.5 (e.g., 12 or higher) on the clinical rating scale with moderate bilateral Parkinsonism. Intravenous MPTP is administered at 3-5 day intervals. The actual cumulative number of i.v. MPTP injections is determined by the onset of stable bilateral symptoms. This protracted time course of i.v. MPTP administration allowed for development and evaluation of new Parkinsonian symptoms following each MPTP administration. […]
In the Experimentation Phase, the monkeys were assigned to one of three treatment groups: Group 1—oral ropinirole TID using the mean lowest effective dose determined in the Dose Finding Phase. […]
A Clinical Rating Scale for neurobehavioral examination was used to assess the clinical status of the monkeys under; normal, MPTP, and MPTP+treatment conditions, once per week, according to previously published protocols. […] Subjects were assessed once per week. All groups were assessed one hour after dosing. […] Occurrence of dyskinesia, psychological disturbances and vomiting were also recorded.

MPTP treated monkeys [3] = assay: Activity monitoring system (AMS), 12-hour light/dark cycle
Protocol: as §1
The activity monitoring system (“AMS”) records a 12-hour light/dark cycle. Each monkey was fitted with a monkey jacket that contained an activity monitor (Actitrac 1M Systems, Baltimore, Md.) in the inside back pocket. This activity monitor measured motion along its vertical and horizontal axes digitizing acceleration signals at a 40 Hertz sampling rate and stored the average acceleration value calculated during each consecutive time interval. The number of pulses was expressed for a pre-selected time period (1 minute). Data was collected continuously in 1-minute bins for a period of to 14 days. At the end of the period, the monkeys were again tranquilized with ketamine (15 mg/kg, intramuscularly), the activity monitor was removed and interfaced with a computer, and the data was downloaded. The data was expressed as the mean activity of each 12-hour light/dark cycle.

For CCCN(CCC)CCc1cccc2c1CC(=O)N2 [oral ropinirole, 4-(2-di-n-propylaminoethyl)-2(3H)-indolone], the “variability of plasma levels” value [1] was “much greater variability”, the “CRS measure versus placebo” value (MPTP treated monkeys [2]) was “statistically superior to placebo” and the “activity levels, Sat-Sun (weekend)” value (MPTP treated monkeys [3]; days 10-42, versus pre-MPTP baseline and placebo, no active oral agent given on weekend days) was “resembled placebo with reduced activity relative to baseline; also recorded: indistinguishable from placebo”. The “activity levels, Wed-Fri” value (MPTP treated monkeys [3]; days 10-42, versus pre-MPTP baseline, oral: peak about 1 hour after each dose during wake cycle) was “exceeded baseline, pre-MPTP levels” and the “overall pattern of activity (12-hour light/dark cycles)” value (MPTP treated monkeys [3]; versus pre-MPTP baseline / healthy monkeys) was “alternating periods of very high activity interspersed with normal levels; also recorded: alternating periods of very high and normal activity”.
